Consider 5 molecules from patent US4973554A, “Affinity process for trypsin purification and stabilization” (National Research Council of Canada, priority 1987, dated 1990).

In data set [1] the target is T1, trypsin (Bos taurus, UniProt P00760).
T1 sequence (P00760 24-246): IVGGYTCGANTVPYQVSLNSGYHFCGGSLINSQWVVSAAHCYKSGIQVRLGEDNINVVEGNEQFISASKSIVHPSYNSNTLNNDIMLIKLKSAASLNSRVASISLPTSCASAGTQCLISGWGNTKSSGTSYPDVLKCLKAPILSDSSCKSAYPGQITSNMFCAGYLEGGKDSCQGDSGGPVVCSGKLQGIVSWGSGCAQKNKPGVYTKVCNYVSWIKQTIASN
As to the kind of experiment: Elution of bound trypsin from affinity polymer during ultrafiltration. To be noted: for elution of bound trypsin from polymer 5:1 by eluting solution: 500 mM arginine with 10 mM Ca++ in Tris pH 8, 2M KCl with 10 mM Ca++ in pH 8 Tris, 10 mM m-aminobenzamidine, data not shown. As to the method:
Investigation was next conducted on the eluting characteristics of four agents (FIG. 1).
Tests were also performed to determine whether the elution of trypsin with arginine was affected by the acrylamide:monomer ratio and the polymer concentration.

Data set [2] has as its system trypsin. The following applies: Adamski-Medda et al, 1981; cited from earlier work.
A further data set deals with chymotrypsin. To be noted: Adamski-Medda et al, 1981; cited from earlier work.
Data set [3] has as its target T1, trypsin. As to the kind of experiment: Trypsin inhibition kinetics, substrate Nα-benzoyl-L-arginine p-nitroanilide. Type of data set: biochemical.
Data set [4] addresses T1, trypsin. The following applies: with respect to substrate benzoyl-L-arginine p-nitroanilide; literature; cited from earlier work.
Data set [5] has as its target T1, trypsin. As to the kind of experiment: Trypsin storage stability with/without affinity polymer (trypsin activity). To be noted: without affinity polymer. Type of data set: physicochemical. On the procedure: Trypsin can be adsorbed by the affinity polymer and stored until this enzyme is required for use or further processing. […] Without the affinity polymer, the trypsin retained only half of its activity at 25° C. after three days even though this solution was stabilized by adding an appropriate amount of calcium. It was further shown that at 4° C. without the affinity polymer trypsin retained approximately 70% of its original activity after 10 days.

For `[Cl-].[K+]` [KCl], the “elution of bound trypsin from polymer 5:1 by eluting solution” value (“elution of bound trypsin” below) on trypsin [1] was “eluted easily”.

Regarding dextran-p-aminobenzamidine, the “trypsin in the filtrate in presence of macroligand” value in the data set on trypsin [2] is reported as 24%. The “chymotrypsin in the filtrate in presence of macroligand” value in the data set with chymotrypsin is recorded as 65%.

Broadly, the Ki is the equilibrium dissociation constant of an inhibitor or competing ligand from its target. Low values mean tighter binding, high ones weaker binding. Regarding `N=C(N)NCCC[C@H](N)C(=O)O` [arginine, L-arginine], the Ki at trypsin [3] came out at 41 ± 3 mM. Moreover, the “mechanism of trypsin inhibition” value on trypsin [3] (with respect to substrate Nα-benzoyl-L-arginine p-nitroanilide, data not shown) is on record as “competitive inhibitor”. Also, on trypsin [1], the “elution of bound trypsin” value is on record as “eluted easily”. Also, the “eluting characteristics of agents (FIG. 1)” value at trypsin [1] (polymer 5:1 at 0.75% containing 300 mg trypsin, four agents compared) was “most effective eluting agent”.

`N=C(N)c1cccc(N)c1` [m-aminobenzamidine]: at trypsin [3] (position of amino group compared), the “inhibitor strength among ortho, meta, para aminobenzamidine” value was “strongest inhibitor”. For the same molecule, the “elution of bound trypsin” value at trypsin [1] is “eluted easily”. Besides, on trypsin [4], the “trypsin inhibition kinetics (mechanism)” value is listed as “competitive manner”.

B1: trypsin (protein, UniProt P00760 24-246, looked up)
Serine protease 1: T1 sequence (P00760 24-246)
B1: the “original trypsin activity retained” value with trypsin [5] (4° C., 10 days) was “approximately 70%”. For the same molecule, in the data set with trypsin [5] (25° C., three days, calcium added), the trypsin activity retained result was “half”.
